Literature values as cited in article PMC10851415 (Biochemistry, 2024).

Tested on: influenza
Details: in vivo, po; cited from earlier work

Compound: COC(=O)OCOc1c2n(ccc1=O)N([C@@H]1c3ccccc3SCc3c1ccc(F)c3F)[C@@H]1COCCN1C2=O [BXM, Baloxavir marboxil]
- reduce fever in an average of: 24 h
